From patent US8168654B2 (priority 2003, dated 2012)
Structures can show the parent of a compound that is named as a salt.

target: T1, human muscarinic acetylcholine M3 receptor (Homo sapiens, UniProt P20309); assay: biochemical; format: binding
T1 construct: expressed in transfected cells; host or cells: CHO cells, stably transfected; membranes
T1 sequence (P20309 whole entry): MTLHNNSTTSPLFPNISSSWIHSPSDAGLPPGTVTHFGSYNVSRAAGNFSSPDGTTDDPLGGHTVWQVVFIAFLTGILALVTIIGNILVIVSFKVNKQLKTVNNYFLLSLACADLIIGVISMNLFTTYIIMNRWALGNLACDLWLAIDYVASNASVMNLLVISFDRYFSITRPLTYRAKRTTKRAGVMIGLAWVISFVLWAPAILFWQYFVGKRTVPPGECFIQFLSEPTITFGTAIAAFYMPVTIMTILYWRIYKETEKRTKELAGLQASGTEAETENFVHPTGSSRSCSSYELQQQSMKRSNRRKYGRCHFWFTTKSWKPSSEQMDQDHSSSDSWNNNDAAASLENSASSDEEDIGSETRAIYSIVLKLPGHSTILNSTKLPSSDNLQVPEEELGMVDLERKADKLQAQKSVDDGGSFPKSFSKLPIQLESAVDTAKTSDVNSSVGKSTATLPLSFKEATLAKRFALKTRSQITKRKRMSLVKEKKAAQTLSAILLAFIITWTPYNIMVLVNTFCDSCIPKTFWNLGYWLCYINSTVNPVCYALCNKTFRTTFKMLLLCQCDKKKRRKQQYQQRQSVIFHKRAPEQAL

Structure (SMILES) | Ki
O=C(C[N+]12CCC(CC1)[C@@H](OC(=O)C(O)(c1cccs1)c1cccs1)C2)Nc1ccccc1 [Example 76, (R)-3-(2-Hydroxy-2,2-di-thiophen-2-yl-acetoxy)-1-phenylcarbamoylmethyl-1-azonia-bicyclo[2.2.2]octane trifluoroacetate] | 1.1 nM
O=C(C[N+]12CCC(CC1)[C@@H](OC(=O)C(O)(c1ccccc1)c1ccccc1)C2)NCCc1cccs1 [Example 96, (R)-3-(2-Hydroxy-2,2-diphenyl-acetoxy)-1-[(2-thiophen-2-yl-ethylcarbamoyl)-methyl]-1-azonia-bicyclo[2.2.2]octane trifluoroacetate] | 4.6 nM
O=C(C[N+]12CCC(CC1)[C@@H](OC(=O)C(O)(c1ccccc1)c1ccccc1)C2)Nc1ccon1 [Example 242, (R)-3-(2-Hydroxy-2,2-diphenyl-acetoxy)-1-(isoxazol-3ylcarbamoylmethyl)-1-azonia-bicyclo[2.2.2]octane bromide] | 0.3 nM
O=C(C[N+]12CCC(CC1)[C@@H](OC(=O)C(O)(c1ccccc1)c1ccccc1)C2)Nc1ccccc1 [Example 52, (R)-3-(2-Hydroxy-2,2-diphenyl-acetoxy)-1-phenylcarbamoylmethyl-1-azonia-bicyclo[2.2.2]octane] | 1.9 nM
O=C(NCC[N+]12CCC(CC1)[C@@H](OC(=O)C(O)(c1ccccc1)c1ccccc1)C2)C1(O)CC1 [Example 221, (R)-1-[2-[(1-Hydroxy-cyclo-propanecarbonyl)-amino]-ethyl]-3-(2-hydroxy-2,2-diphenyl-acetoxy)-1-azonia-bicyclo[2.2.2]-octane hexafluorophosphate] | 1.3 nM
O=C(Cc1ccccc1)NCCC[N+]12CCC(CC1)[C@@H](OC(=O)C(O)(c1ccccc1)c1ccccc1)C2 [Example 34, (R)-3-(2-Hydroxy-2,2-diphenyl-acetoxy)-1-(3-phenylacetylamino-propyl)-1-azonia-bicyclo[2.2.2]octane trifluoroacetate] | 2.3 nM
O=C(NCC[N+]12CCC(CC1)[C@@H](OC(=O)C(O)(c1ccccc1)c1ccccc1)C2)c1cnccn1 [Example 138, (R)-3-(2-Hydroxy-2,2-diphenyl-acetoxy)-1-(2-[{pyrazine-2-carbonyl)-amino]-ethyl}-1-azonia-bicyclo[2.2.2]octane trifluoroacetate] | 2.2 nM
O=C(C[N+]12CCC(CC1)[C@@H](OC(=O)C(O)(c1cccs1)c1cccs1)C2)Nc1cnccn1 [Example 159, (R)-3-(2-Hydroxy-2,2-di-thiophen-2-yl-acetoxy)-1-(pyrazin-2-ylcarbamoylmethyl)-1-azonia-bicyclo[2.2.2]octane bromide] | 0.7 nM
O=C(C[N+]12CCC(CC1)[C@@H](OC(=O)C(O)(c1cccs1)c1cccs1)C2)Nc1ccncn1 [Example 244, (R)-3-(2-Hydroxy-2,2-di-thiophen-2-yl-acetoxy)-1-(pyrimidin-4-ylcarbamoylmethyl)-1-azonia-bicyclo[2.2.2]octane bromide] | 0.3 nM
